Earlier results, collected in US5866682A (priority 1997, dated 1999).

System: α3β2 and α3β4 receptors

## α-conotoxin MII
  binding sites and toxin molecules required to block function: has two binding sites on α3β2 and α3β4 receptors expressed in Xenopus oocytes and only one toxin molecule is required to block function
  block of native nAChRs: blocks native α3β2-containing nAChRs and α3β4 conataining nAChRs
  discrimination between the α3β2 and α3β4 interface: four orders-of-magnitude
